Data as given in publication PMC8536600 (Cancer Chemotherapy and Pharmacology, 2021).
Like-named read-outs stand apart in the source and are kept apart here.

Columns and labels:
CYP3A4 = details: cited from earlier work
[1] = Exploratory population pharmacokinetic (popPK) analysis in GvHD patients; format: in vivo, human; details: for RUV b (residual unexplained variability, proportional error) / ωCL/F (inter-individual variability on CL/F) / ωV (inter-individual variability on Vc/F): as standard deviation of normal distribution
Protocol: An exploratory popPK analysis was conducted to identify relevant covariates influencing drug exposure, to predict the influence of strong CYP3A4 or CYP2C9 inhibitors or PPI and to generate population estimates for apparent oral clearance (CL/F) and apparent central volume of distribution (Vc/F) as classical statistical analysis was not suitable due to the unbalanced number of samples per patient. The analysis was conducted on the individual raw data (as opposed to the descriptive statistics) using Monolix 2020R1 (Antony, France: Lixoft SAS, 2020) and was based on a previously published popPK model by Chen et al. investigating pharmacokinetics in patients with primary and secondary myelofibrosis (MF).
Oral pharmacokinetics were described by a two-compartment model using first order absorption with lag time and linear elimination from the first compartment only. The population mean values for CL/F and Vc/F were re-estimated using the SAEM algorithm implemented in Monolix. The remaining parameters, except for the covariate model, were fixed to the original values. As in the original model, all pharmacokinetic parameters were assumed to be log-normally distributed. Dichotomous categorical covariates, were implemented as follows:1 logCL/Ftypical=logCL/Fpop+β^COV with COV being 0 or 1 encoding for the presence or absence of covariate effect.
Continuous covariates were scaled to the population mean values using the following exponential relationship:2 logCL/Ftypical=logCL/Fpop+β∙COV with COV being the value of individual covariate, e.g., scaled eGFR = eGFR/70.2.
Inter-individual variability (η) was implemented for CL/F and Vc/F according to: 3 logCL/Find=logCL/Ftypical+ηind,CLFwithηCL/F∼N0,ωCL/F2logVc/Find=logVc/Ftypical+ηind,Vc/FwithηVc/F∼N0,ωVc/F2
Residual unexplained variability (RUV) was modeled using a proportional error model represented by the parameter b and the following equation:4 Concobs=Concpred∙1+ϵwithϵ∼N(0,b^2)
A stepwise approach was used to develop the covariate model. Covariate effects were assessed using the Wald test and by comparing objective function values (OFV, which is the −2-log-likelihood) and derived descriptors such as Bayesian Information Criteria (BIC), corrected Bayesian Information Criteria (cBIC), and Akaike Information Criteria (AIC). The criterion for forward inclusion was an improvement of the OFV (p ≤ 0.1). In the backward elimination, a limit for the p value of < 0.05 was applied. The following covariates were tested: the presence of strong or moderate CYP3A4 or CYP2C9 inhibitors on CL/F, the presence of PPI on F (as relative bioavailability), aspartate aminotransferase (AST) on CL/F, total body weight on Vc/F, eGFR on CL/F, sex on CL/F, and smoking habit on CL/F.

[2] = Observed concentrations versus concentrations simulated with Chen et al.'s popPK model for myelofibrosis patients; parameters: species or system human; details: simulated with Chen et al.'s MF model, lower than observed
From the text: The model published by Chen et al. was also encoded in R using the mrgsolve package for R [30]. Applying patient covariates and dosing schemes, the model was used to predict every observed concentration of every patient included in our study based on individual patient covariates and dosing data.

[3] = Clinical and laboratory adverse events (CTCAE v5.0) in relation to Ruxolitinib trough serum concentration; format: in vivo, human; details: for Mean trough concentration in group: logistic regression on at least three AE
Protocol: Adverse events (AE) were registered by questioning patients at each sampling time point. Patients were specifically asked for AE occurring in ≥ 1/100 patients according to the prescribing information. Clinical AE were graded according to the […] (CTCAE) Version 5.0 [26]. Further recorded patient data included age, sex, height, weight, ethnicity, smoking status, dosing regimen, and comedication. Relevant laboratory parameters were recorded in parallel to blood sampling (estimated glomerular filtration rate (eGFR), serum creatinine, serum albumin, total cholesterol, total bilirubin, hemoglobin, white blood cell count, absolute neutrophil count, platelet count, aspartate, and alanine aminotransferase).
(§1) Data were collected and processed using Microsoft Excel 2016 Version 16.0 (Microsoft Corporation, Redmond, WA, USA). Statistical calculations and visualization of results were performed with R Studio Version 1.2.5042 (RStudio Incorporation, Boston, MA, USA) and running R version 4.0.5 (R Foundation for Statistical Computing, Vienna, Austria, 2020). […] To fully display the degree of variability, concentrations were also summarized across all patients, stratified by dosing scheme. Pairwise comparisons were performed using Wilcoxon rank-sum test. Wilcoxon-signed-rank test was used for […] samples. For comparisons between more than two groups the Kruskal–Wallis one-way analysis of variance combined with Dunn’s test post hoc was used. Spearman’s correlation was used for analysis of AE. Logistic regression followed by receiver operator characteristic (ROC) analysis was used to evaluate the risk for the occurrence of AE of any grade or type on a visit in relation to the corresponding trough concentration on that visit. Due to the explorative nature of the study, p values obtained from multiple comparisons were not corrected for multiple testing. A p value < 0.05 was considered statistically significant. A Spearman’s rho (ρ) correlation was defined as follows: 0 to 0.3 or 0 to −0.3, weak; 0.3 to 0.7 or −0.3 to −0.7, moderate and 0.7 to 1 or −0.7 to −1, strong.

[4] = cited from earlier work
[5] = parameters: method as in Chen et al., J Clin Pharmacol. 2013;53(7):721-30; details: fixed, ref Chen et al., J Clin Pharmacol. 2013;53(7):721-30, cited from earlier work
[6] = Steady state Ruxolitinib trough serum concentrations in GvHD patients in clinical routine (LC-MS/MS); format: in vivo, human
From the text: Patients were enrolled in a noninterventional prospective clinical trial at the University Hospital of Würzburg between February 2019 and February 2021. The study was approved by the Ethics Commission of the University of Würzburg (ref 199/18-am). All performed procedures were in accordance with the Declaration of Helsinki. Written informed consent was obtained from all patients. […] After enrollment blood samples and patient data were collected regularly during routine outpatient visits for 1 year. Treatment was managed at the discretion of the treating physician.
Serum samples were collected at each outpatient visit during routine blood withdrawal. Patients were asked to take Ruxolitinib after blood withdrawal. Date and time of last administration and blood withdrawal were recorded. Samples obtained at least 48 h after initiation or modification of therapy were considered steady state samples [27]. Samples obtained between eight and 30 h after last administration (depending on dosing scheme) were considered trough levels.
In brief, after protein precipitation with acetonitrile separation was achieved on a Waters XBridge Phenyl 3.5 µm (2.1 × 50 mm) column using gradient elution (flow rate 400 μL/min). […] Lower level of quantification (LLOQ) of the method was 2 ng/mL. Concentrations < LLOQ were excluded from further statistical analysis but included as censored data (between 0 ng/mL and LLOQ) in the popPK analysis.
as §1

[7] = popPK analysis in patients with aGvHD
[8] = daily dose 5-< 20 mg, 51 samples
[9] = daily dose > 20-40 mg, 3 samples

Which “CYP3A4 (inhibitor / inducer)” value (CYP3A4) does the source give for `CN(C)C(=O)C(CCN1CCC(O)(c2ccc(Cl)cc2)CC1)(c1ccccc1)c1ccccc1` [Loperamide] here?
Its value is “inhibitor”.

And the “CYP3A4 Strength” value (CYP3A4)?
Its value is “strong”.

For `CC[C@H]1OC(=O)[C@H](C)[C@@H](O[C@H]2C[C@@](C)(OC)[C@@H](O)[C@H](C)O2)[C@H](C)[C@@H](O[C@@H]2O[C@H](C)C[C@H](N(C)C)[C@H]2O)[C@](C)(O)C[C@@H](C)CN(C)[C@H](C)[C@@H](O)[C@]1(C)O` [Azithromycin], which “CYP3A4 (inhibitor / inducer)” value (CYP3A4) is on record?
Its value is “inhibitor”.

Which results are given for `N#CC[C@H](C1CCCC1)n1cc(-c2ncnc3[nH]ccc23)cn1` [Ruxolitinib]?
CL/F, population mean ([1]; base model): 8.55 L/h; Vc/F, population mean ([1]; base model): 64.8 L; RUV b (residual unexplained variability, proportional error) ([1]; base model): 0.50; ωCL/F (inter-individual variability on CL/F) ([1]; base model): 0.52; ωV (inter-individual variability on Vc/F) ([1]; base model): 0.25; Reduction of CL/F due to coadministration of at least one strong CYP3A4 or CYP2C9 inhibitor ([1]; compared to study patients not receiving relevant strong inhibitors, back transformation of β): 15%; Vc/F, population mean ([1]; covariate model): 61.9 L; βCL, STRONG_INH (covariate effect of strong CYP3A4 or CYP2C9 inhibitors on CL/F) ([1]; covariate model): -0.16; CL/F, population mean (typical CL/F) ([1]; covariate model including strong CYP inhibitors as covariate): 9.74 L/h; Share of inter-individual variability on CL/F explained by strong CYP3A4 or CYP2C9 inhibitors ([1]; covariate model vs base model): about 4%; RUV b (residual unexplained variability, proportional error) ([1]; covariate model): 0.50; ωCL/F (inter-individual variability on CL/F) ([1]; covariate model): 0.48; ωV (inter-individual variability on Vc/F) ([1]; covariate model): 0.29; Effect of simultaneous administration of PPI on Ruxolitinib exposure ([1]; covariate tested on relative bioavailability): did not affect Ruxolitinib exposure; Reduction of Ruxolitinib clearance in GvHD population ([1]; in comparison to the population of Chen et al. (patients with MF)): approximately 50%; Median paired difference between observed and simulated serum concentrations ([2]; non-trough concentrations): 64.9 ng/mL; Median paired difference between observed and simulated serum concentrations ([2]; trough concentrations): 27.1 ng/mL; Clinical AE reported at the time of blood sampling, total number ([3]; 29 GvHD patients, all grades): 302; Clinical AE of grade 1, number ([3]; CTCAE grade 1): 250; Clinical AE of grade 2, number ([3]; CTCAE grade 2): 46; Share of all reported clinical AE of grade 3 ([3]; CTCAE grade 3): 2.0%; Clinical AE of grade 4 or 5 ([3]; CTCAE grade 4 or 5): no AE of grade 4 or 5; Average clinical AE reported at each sampling time point ([3]; grade 1): 0.95; Average clinical AE reported at each sampling time point ([3]; grade 2): 0.18; Average clinical AE reported at each sampling time point ([3]; grade 3): 0.02; Mean trough concentration in group ([3]; first of both groups as printed): 35.9 ng/mL; Mean trough concentration in group ([3]; second of both groups as printed): 62.8 ng/mL; Correlation between trough concentration and occurrence of grade 1 AE on the same visit ([3]; vertigo and cephalgia, p < 0.05): significant correlation; Effect of Ruxolitinib exposure on thrombocyte count, absolute neutrophil count and bilirubin ([3]; visual analysis of the data): did not reveal obvious effects; CL/F for a typical female ([4]; patients with MF): 17.7 L/h; CL/F for a typical male ([4]; patients with MF): 22.1 L/h; Lower oral clearance in comparison to MF patients [4, 7]: 66.7%; Slower rate of absorption in comparison to MF patients [4, 7]: 28%; Q/F, population mean ([5]; base model): 2.53 L/h; TLag, population mean ([5]; base model): 0.0545 h; Vper/F, population mean ([5]; base model): 11.2 L; ka, population mean ([5]; base model): 4.12 h⁻¹; Q/F, population mean ([5]; covariate model): 2.53 L/h; TLag, population mean ([5]; covariate model): 0.0545 h; Vper/F, population mean ([5]; covariate model): 11.2 L; ka, population mean ([5]; covariate model): 4.12 h⁻¹; All trough serum concentrations at 5 mg daily ([6]; 5 mg daily, 3 of 4 samples < LLOQ (2 ng/mL)): ^aAll trough serum concentrations at 5 mg daily were ≤ 2.17 ng/mL (3 of 4 samples < LLOQ); Range of individual mean trough serum concentrations ([6]; 20 mg daily, n = 20 individuals): 5.6 to 99.8 ng/mL; Median of individual mean trough serum concentrations ([6]; 20 mg daily, patients not requiring AE-related dose reduction, n = 18): 39.8 ng/mL; Median of individual mean trough serum concentrations ([6]; 20 mg daily, patients who had dose reductions for AE, before reduction, n = 4): 60.6 ng/mL; Median of individual mean trough serum concentrations ([6]; 20 mg daily, steady state, n = 20 individuals): 39.9 ng/mL; Range of individual mean trough serum concentrations ([6]; 5-< 20 mg daily, n = 8 individuals): 7.7 to 46.8 ng/mL; Median of individual mean trough serum concentrations ([6]; 5-< 20 mg daily, steady state, n = 8 individuals): 26.2 ng/mL; Median of individual mean trough serum concentrations ([6]; > 20-40 mg daily, steady state, n = 2 individuals): 15 ng/mL; Steady state trough serum concentration of all samples across all individuals, Median ([6]; daily dose 20 mg, 120 samples): 40.5 ng/mL; Steady state trough serum concentration of all samples across all individuals, Range ([6]; daily dose 20 mg, 120 samples): 2.7 to 229 ng/mL; Steady state trough serum concentration of all samples across all individuals, Median [6, 8]: 17.5 ng/mL; Steady state trough serum concentration of all samples across all individuals, Range [6, 8]: 2.2 to 155 ng/mL; Steady state trough serum concentration of all samples across all individuals, Median [6, 9]: 25.1 ng/mL; Steady state trough serum concentration of all samples across all individuals, Range [6, 9]: 4.3 to 28.5 ng/mL; Steady state trough serum concentration of all samples across all individuals, Median ([6]; daily dose: All, 174 samples): 31.4 ng/mL; Steady state trough serum concentration of all samples across all individuals, Range ([6]; daily dose: All, 174 samples): 2.2 to 229 ng/mL; Median of mean trough concentrations ([6]; patients with AE-related dose reduction, after dose reduction, n = 4): 28.4 ng/mL; Trough concentrations under dual CYP inhibition ([6]; two patients receiving Posaconazole plus Atorvastatin or Amiodarone, mostly above this value): > 80 ng/mL

For `C=C[C@H]1C[N@@]2CC[C@H]1C[C@H]2[C@H](O)c1ccnc2ccc(OC)cc12` [Quinine], which “CYP3A4 (inhibitor / inducer)” value (CYP3A4) is on record?
Its value is “inducer / inhibitor”.
